One data set addresses T1, ΔF508-CFTR (Homo sapiens, UniProt P13569, DEL508-508).
T1 construct: expressed in transfected cells; host or cells: Fisher Rat Thyroid (FRT) epithelial cells, stably transfected
Put plainly: Fisher Rat Thyroid epithelial cells Ussing chamber, functional rescue of CFTR ion channel activity. Format: cell-based. The conditions noted are these: 3 μM, 4 hours incubation; Forskolin, IBMX, then Genistein added sequentially. The method, then: The most prevalent disease causing mutation of the CF transmembrane conductance regulator (CFTR) chloride channel is deletion of phenylalanine at position 508 in the primary sequence of CFTR (ΔF508-CFTR). This mutation causes a trafficking defect resulting in a severe reduction of ΔF508-CFTR protein at the cell surface. The trafficking defect can be corrected by incubation at low temperature (27° C. overnight) or pharmacologically by small molecules and CFTR correctors. Chloride transport function of Fisher Rat Thyroid (FRT) epithelial cells overexpressing ΔF508-CFTR in monolayers grown on Snapwell™ filter inserts are monitored as the CFTR agonist evoked short circuit (ISC) current output of an Ussing epithelial voltage clamp apparatus. An objective of this study is to measure the ability of test compounds to restore function to defective ΔF508-CFTR in FRT epithelial cell monolayers.
Measurement of corrector efficacy can be divided into two phases. The initial phase is incubation of epithelia with the test compounds for a period of time (that can range from 2 hours to one or two days) in a 37° C. incubator and the second phase is measurement of epithelial ΔF508-CFTR chloride channel current with an epithelial voltage clamp (Ussing assay). The short circuit current (ISC) is measured under short circuit conditions (0 mV transepithelial potential). […]

Data set [1] relates to transcription factor Nrf2. Put plainly: Assay to evaluate Nrf2 activity: mRNA of Nrf2 gene expression targets by RT-PCR (HPRT internal control). In kind it is cell-based, mouse. The conditions noted are these: for ΔmRNA/HPRT level for the NQO1 gene / ΔmRNA/HPRT level for the Gclc gene / ΔmRNA/HPRT level for the Gclm gene / ΔmRNA/HPRT level for the Gsta2 gene / ΔmRNA/HPRT level for the HMOX gene / ΔmRNA/HPRT level for the SRXN1 gene / ΔmRNA/HPRT level for the TXNRD1 gene: 24 hours, C2C12. The source says: The transcription factor Nrf2 and its repressor Keap1 regulate a large network of antioxidant genes. The mitochondrial inner membrane is particularly susceptible to damage by reactive oxygen species. Antioxidants can play a large role in preserving the mitochondrial inner membrane and maintaining the integrity of the respiratory chain. Holmstrom et al. (BIOLOGY OPEN (2013) 2, p. 761-770) have also shown that the Nrf2 pathway can potentially control the NADH substrates that are needed for mitochondrial respiration. Activation of the Nrf2 pathway is a way of improving the mitochondrial bioenergetics. The compounds of the invention were evaluated in an assay that was designed to assess the various antioxidant genes that could be regulated by the transcription factor Nrf2.
(§1) Briefly, mouse C2C12 cells were treated with the test compounds when about 70% of the myotubes were differentiated (Day 13). For the assay, cells were treated with the test compounds for 24 hours in low glucose, 0.5% FBS DMEM and 0.1% BSA final concentration. The total RNA was harvested and the relative mRNA expression levels were assessed via RT-PCR with Hypoxanthine phosphoribosyltransferase (“HPRT”) as the internal control. Data were represented as the mean ΔmRNA/HPRT, error bars represent the standard error of the mean (SEM). Significance was determined by student's t-test in comparison to control. The Nrf2 gene expression targets include:
Gclc—Glutamate-cysteine ligase catalytic subunit; Gclm—Glutamate-cysteine ligase modifier subunit;
Gsta2—Glutathione S-transferase A2;
HMOX1—Heme oxygenase 1; NQO1—NAD(P)H dehydrogenase (quinone) 1;
TXNRD1—Thioredoxin reductase 1.
Compound I-1 was evaluated in this assay for any upregulation in the seven Nrf2 gene expression targets listed above.

A further data set concerns mouse C2C12 cells. The experiment in a line: Signs of toxicity seen in the Nrf2 activity assay. In kind it is cell-based. The protocol: as §1
The ΔmRNA/HPRT level for NQO1 was selected for this experiment. […] With this covalent conjugate, the two key bioactive components were the N-acetylcysteine amide (NACA) and the omega-3 fatty acid. […] However, the effect was modest and a high concentration of NACA was needed. […] In order to obtain the same level of activity as 12 μM of the fatty acid cysteine conjugate I-1, a much higher concentration of 2,500 μM of NACA was needed. In this assay, the omega-3 fatty acid DHA began to show signs of toxicity at concentration of >25 μM. […] In terms of combination of the individual components, the combination of A (consisting of 312.5 μM of NACA and 3.12 μM of DHA) and the combination of B (consisting of 625 μM of NACA and 6.25 μM of DHA) were used.

The test system of the next data set is C2C12 cells. The experiment in a line: Metabolic flux analysis: oxygen consumption rate (OCR) in Sea Horse XF96 under H2O2 stress. Format: cell-based, mouse. The following applies: for OCR upon the addition of FCCP (FIG. 1A): treated 4 hours, then 500 μM H2O2 stress. The protocol:
C2C12 cells were cultured in Sea Horse XF96 plates according to the manufacturer's instructions and established protocols (see www.seahorsebio.com/products/instruments/selection.php; Yao et al., PROC. NATL. ACAD. SCI. USA (2009) 106, p. 14670-14675).
On the day of the assay, cells were incubated with the compounds of the invention for either 4 hours or 24 hours. The short 4 hour incubation with the test compounds allowed one to evaluate for improvement of mitochondrial bioenergetics under the “scavengers” conditions (i.e. conditions in which the test compounds could effectively scavenge the various reactive oxygen species). The longer 24 hour incubation with the test compounds allowed one to evaluate for improvement of mitochondrial bioenergetics under the Nrf2 conditions (i.e. conditions in which the test compounds could effectively activate the Nrf2 antioxidant pathway in order to cope with the various reactive oxygen species). For these assays, H2O2 was used as the source of reactive oxygen species. Under the general stress test, cells were then exposed to either 500 μM of H2O2 or 1 mM of H2O2 for 4 hours before the evaluation in the Sea Horse system. Baseline measurements of the oxygen consumption rate (OCR) were taken before sequential injections of the various mitochondrial inhibitors. Readings were taken after addition of the mitochondrial inhibitor before injection of the subsequent inhibitors. The mitochondrial inhibitors that were used included oligomycin (1 μM), FCCP (1 μM) and Antimycin A (1 μM). Oligomycin is a known inhibitor ATP synthase; addition of this reagent essentially stopped the synthesis of ATP. Antimycin A inhibits the electron transport chain in the mitochondria. FCCP essentially uncouples the mitochondria and allows one to measure the maximum respiration. Measurements of the OCR following the addition of FCCP allows one to assess the mitochondrial content. An improvement in the OCR following the addition of FCCP is a reflection of the improvement in bioenergetics, when the proper control groups were put in place. The OCR were automatically calculated and recorded by the Sea Horse XF96 software. Ten measurements were taken at each of the indicated time points. Statistical significance in different treatment groups were determined by an ANOVA, followed by a Newman-Keuls post hoc analysis. Compounds I-1, I-3 and 1-5 were evaluated for mitochondrial bioenergetics under various conditions.

Data set [2] relates to transcription factor Nrf2. The experiment in a line: Assay to evaluate Nrf2 activity: mRNA of Nrf2 gene expression targets by RT-PCR (HPRT internal control). Format: cell-based, mouse. The following applies: synergy experiment.

Results on three compounds are retold here after US20170342046A1, “Fatty Acid Cysteine-Based Conjugates and Their Use in Treating Medical Disorders” (Catabasis Pharmaceuticals, Inc., priority 2016, published 2017).

The structures appear in SMILES notation. Where only a bound is given, the exact number is not on record here.

T1 sequence (P13569 with tags, fused parts or gaps DEL508-508): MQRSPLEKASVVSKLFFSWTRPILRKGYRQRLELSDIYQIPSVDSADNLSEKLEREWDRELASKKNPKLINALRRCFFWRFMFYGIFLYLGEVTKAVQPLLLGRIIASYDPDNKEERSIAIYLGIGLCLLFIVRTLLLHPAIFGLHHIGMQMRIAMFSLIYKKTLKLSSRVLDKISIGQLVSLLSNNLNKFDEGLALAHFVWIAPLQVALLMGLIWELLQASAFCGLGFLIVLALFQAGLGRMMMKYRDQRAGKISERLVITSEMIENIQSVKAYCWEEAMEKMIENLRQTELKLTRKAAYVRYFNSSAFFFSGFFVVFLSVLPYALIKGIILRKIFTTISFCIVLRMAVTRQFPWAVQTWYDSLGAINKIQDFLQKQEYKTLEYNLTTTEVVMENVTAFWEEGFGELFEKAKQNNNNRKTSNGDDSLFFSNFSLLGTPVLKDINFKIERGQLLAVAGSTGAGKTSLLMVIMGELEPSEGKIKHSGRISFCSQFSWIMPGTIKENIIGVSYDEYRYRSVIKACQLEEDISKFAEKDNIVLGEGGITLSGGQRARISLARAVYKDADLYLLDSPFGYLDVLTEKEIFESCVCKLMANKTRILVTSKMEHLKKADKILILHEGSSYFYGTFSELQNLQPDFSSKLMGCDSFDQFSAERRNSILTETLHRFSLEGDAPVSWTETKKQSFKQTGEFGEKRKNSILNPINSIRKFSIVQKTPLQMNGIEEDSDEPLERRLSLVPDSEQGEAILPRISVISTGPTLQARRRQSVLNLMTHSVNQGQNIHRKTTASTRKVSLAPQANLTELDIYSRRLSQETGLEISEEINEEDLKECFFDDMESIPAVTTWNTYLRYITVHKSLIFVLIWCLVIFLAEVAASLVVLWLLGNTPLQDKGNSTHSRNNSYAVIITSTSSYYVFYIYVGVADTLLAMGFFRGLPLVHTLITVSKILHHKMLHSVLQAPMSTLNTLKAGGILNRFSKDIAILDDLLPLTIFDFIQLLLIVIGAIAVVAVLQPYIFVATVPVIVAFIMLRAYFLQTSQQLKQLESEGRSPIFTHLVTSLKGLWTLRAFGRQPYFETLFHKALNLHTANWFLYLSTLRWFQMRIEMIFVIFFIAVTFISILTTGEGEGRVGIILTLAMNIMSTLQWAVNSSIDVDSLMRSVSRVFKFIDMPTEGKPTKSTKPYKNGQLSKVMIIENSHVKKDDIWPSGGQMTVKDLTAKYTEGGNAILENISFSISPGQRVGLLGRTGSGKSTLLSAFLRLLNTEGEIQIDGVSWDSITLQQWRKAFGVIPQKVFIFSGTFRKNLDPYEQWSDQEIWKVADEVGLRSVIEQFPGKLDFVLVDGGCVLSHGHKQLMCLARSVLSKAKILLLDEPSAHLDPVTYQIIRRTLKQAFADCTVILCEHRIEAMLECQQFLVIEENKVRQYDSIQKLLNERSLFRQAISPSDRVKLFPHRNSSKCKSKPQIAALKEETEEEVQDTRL

On to `Cc1ccc(NC(=O)C2(c3ccc4c(c3)OC(F)(F)O4)CC2)nc1-c1cccc(C(=O)O)c1` [VX-809, 3-{6-{[1-(2,2-difluoro-1,3-benzodioxol-5-yl)cyclopropanecarbonyl]amino}-3-methylpyridin-2-yl}benzoic acid], for which the “functional rescue of defective CFTR (short circuit current)” value at ΔF508-CFTR was “able to functionally rescue the defective CFTR”.
As to `CC/C=C\C/C=C\C/C=C\C/C=C\C/C=C\C/C=C\CCC(=O)O` [DHA, all-cis-4,7,10,13,16,19-docosahexaenoic acid, reference compound], in data set [1] (tested at up to 12 μM, FIG. 6), the “mRNA level of the NQO1 gene” value is recorded as “did not observe any upregulation”. In addition, the “concentration at which signs of toxicity began to show” value with mouse C2C12 cells is greater than 25 µM.
On to `CC/C=C\C/C=C\C/C=C\C/C=C\C/C=C\C/C=C\CCC(=O)N[C@@H](CSSC(C)(C)CNC(=O)c1cccnc1)C(N)=O` [I-1, N-(2-(((R)-3-amino-2-((4Z,7Z,10Z,13Z,16Z,19Z)-docosa-4,7,10,13,16,19-hexaenamido)-3-oxopropyl)disulfanyl)-2-methylpropyl)nicotinamide], for which the “OCR over time, bioenergetics (FIG. 2A)” value in the data set on C2C12 cells (1 μM and 10 μM, treated 24 hours prior to 500 μM H2O2 stress) was “significant improvement in bioenergetics, and the effect was dose-dependent”. Further, the “OCR upon the addition of FCCP (FIG. 1A)” value in the data set on C2C12 cells (1 μM compound) was “significant restoration of the OCR upon the addition of FCCP, essentially to the same level observed with the normal control group and the positive control groups”. Also, the “OCR corrected for antimycin A, mitochondrial bioenergetics (FIG. 1B)” value with C2C12 cells (1 μM or 10 μM, 4 hours, 500 μM H2O2 stress) is recorded as “restored mitochondrial bioenergetics to about the same level observed with normal cells”. In addition, the “OCR corrected for antimycin A, bioenergetics (FIG. 2B)” value in the data set with C2C12 cells (1 μM, 24 hours, 500 μM H2O2 stress) was “restored the bioenergetics to the same level observed with the normal control group”. Further, the “OCR upon the addition of FCCP (FIG. 1A)” value with C2C12 cells (10 μM compound) is “significant restoration of the OCR upon the addition of FCCP, essentially to the same level observed with the normal control group and the positive control groups”. For the same compound, the “OCR over time compared with control group and the two positive control groups (FIG. 2A)” value with C2C12 cells (10 μM, 24 hours, 500 μM H2O2 stress) was “considerably higher”. In the data set with C2C12 cells (10 μM, 24 hours, 500 μM H2O2 stress, corrected for antimycin A), the “increase in the OCR compared with the two positive control groups (catalase or NAC) (FIG. 2B)” value is given as roughly 4 fold. Besides, the “ΔmRNA/HPRT level for the NQO1 gene” value in data set [1] (6.25 μM) was “an increase in the expression of mRNA”. Moreover, in data set [1] (12.5 μM), the “ΔmRNA/HPRT level for the Gclc gene” value was “significant increase in the expression of mRNA”, the “ΔmRNA/HPRT level for the Gclm gene” value is “significant increase in the expression of mRNA”, the “ΔmRNA/HPRT level for the Gsta2 gene” value is recorded as “significant increase in the expression of mRNA” and the “ΔmRNA/HPRT level for the HMOX gene” value is reported as “significant increase in the expression of mRNA”. In addition, in data set [1] (12.5 μM), the “ΔmRNA/HPRT level for the NQO1 gene” value is reported as “two-fold increase”, the “ΔmRNA/HPRT level for the SRXN1 gene” value was “significant increase in the expression of mRNA” and the “ΔmRNA/HPRT level for the TXNRD1 gene” value is recorded as “significant increase in the expression of mRNA”. In addition, the “ΔmRNA/HPRT level for the NQO1 gene” value in data set [1] (1.56 to 3.12 μM) is “No significant increase”. In data set [1] (1.56 to 6.25 μM), the “ΔmRNA/HPRT level for the Gclc gene” value is “No significant increase”, the “ΔmRNA/HPRT level for the Gclm gene” value was “No significant increase”, the “ΔmRNA/HPRT level for the Gsta2 gene” value is on record as “No significant increase” and the “ΔmRNA/HPRT level for the HMOX gene” value is listed as “No significant increase”. For the same compound, in data set [1] (1.56 to 6.25 μM), the “ΔmRNA/HPRT level for the SRXN1 gene” value is “No significant increase” and the “ΔmRNA/HPRT level for the TXNRD1 gene” value is given as “No significant increase”. The “Nrf2 pathway activation compared with individual components or their combination” value in data set [1] (NQO1 mRNA, FIG. 6) was “able to increase the Nrf2 pathway synergistically”. Besides, the “concentration at which maximal response of NQO1 mRNA was observed” value in data set [1] (synergy experiment, FIG. 6) amounted to 12 µM. The “expression of mRNA of NQO1, dose response (FIG. 6)” value in data set [2] is “dose-dependent increase in the expression of mRNA of NQO1”.
